In patent US12583846B2, “2H-benzopyran derivatives as CRAC inhibitors” (CISEN PHARMACEUTICAL CO., LTD, priority 2019, dated 2026):

Experiments:
[1] = Thermodynamic solubility test; type: physicochemical; details: for solubility in water (in words): conclusion of the thermodynamic solubility test
Method: About 2 mg of test compound was weighed into a whatman vial, and 450 μL of phosphate buffer (50 mM, pH=7.4) was added. The stopper of whatman vial was pressed to near the liquid level so that the filter membrane in the stopper is in uniform contact with the liquid level. The vial was shaken well up and down on vortex for two minutes, and the dissolution of test compound in the whatman vial was recorded. The whatman vial was shaken in a shaker at ambient temperature for 24 hours at a rotational speed of 600 r/min. The stopper of whatman vial was slowly pressed to the lowermost part to obtain the supernatant. […] A linear solution (3 standard solutions, 1, 20, 200 μM, n=1) was prepared with diluent. The supernatant was taken out, and 10 μL of the supernatant was accurately taken out and diluted 100 times. The obtained diluent and stock solution and linear solution were simultaneously put into HPLC for detection and analysis, and the results were calculated by an external standard method according to peak area and dilution factor.

[2] = Pharmacokinetic evaluation in mice (intravenous administration of compound 18 or 22, 50 mg/kg); type: in vivo, C57BL/6 mice; details: for elimination in plasma after administration (in words): intravenous 50 mg/kg
Method: Purpose of the experiment: male C57BL/6 mice were used as test animals, and the LC/MS/MS method was applied to determine the plasma drug concentrations of the compounds at different time points after intravenous administration. The pharmacokinetic behavior of the compounds in mice was studied, and their pharmacokinetic characteristics were evaluated.
Drug preparation: an appropriate amount of sample was weighed to prepare 5 mg/mL of clear solution with sterile normal saline.
Administration scheme: two healthy male C57BL/6 mice purchased from Beijing Vital River Laboratory Animal Technology Co., Ltd. was on a normal diet, with a volume of 10 mL/kg and a dose of 50 mg/kg.
(§1) Procedure: after animal administration, 25 μL of blood was collected at 0.083, 0.25, 0.5, 1, 2, 4, 8, 12, and 24 hours, respectively and placed in a commercial anticoagulative tube pre-loaded with EDTA-K2. The tubes were centrifuged for 10 minutes to separate plasma and stored at −60° C. The content of the corresponding compounds in plasma samples was determined by LC/MS/MS.

IL-2 = assay: Inhibitory activity on cytokines: IL-2 in supernatant of anti-CD3/anti-CD28 stimulated hPBMC by CBA method; type: cell-based; details: Homo sapiens, 48 h, anti-CD3/anti-CD28, 2 days incubation
Method: (§2) Human peripheral blood mononuclear cells (hPBMC); supplier: HemaCare; Article Number: PB009C-2
(§3) 96-well plates were coated with 5 μg/mL anti-human CD3 antibody (in DPBS) at […] overnight at 4° C.
(§4) PBMC were removed from liquid nitrogen and immediately placed in a 37° C. water bath for recovery. To a 15 mL centrifuge tube, 5 mL culture medium (RPMI1640 culture medium+10% fetal bovine serum+1% non-essential amino acids+1% penicillin streptomycin+0.05 mM β-mercaptoethanol) was added, and the cell suspension was pipetted to the centrifuge tube, and the mixture was centrifuged at 320 g for 5 minutes. The cells were resuspended with culture medium and counted, and the cell concentration was then adjusted to 5×10^5 cells/mL with the culture medium, To the cell suspension was added anti-human CD28 antibody (final concentration 2 μg/mL), and the mixture was inoculated into a 96-well plate at 200 μL/well.
(§5) Compounds were prepared at the desired concentration and added to the cells. The mixture was incubated at 37° C., 5% CO2 for 2 days.
The standards were prepared according to the instructions of IL-2 and TNFα Flex Set kit. The supernatant of the cultured cells was diluted 5-fold with the buffer provided in the kit and added to a 96-well plate together with the standards. The plated was added with magnetic beads containing antibody from the kit, and incubated at room temperature for 1 hour. The fluorescein PE-labeled secondary antibody in the kit was added and incubated at room temperature for 2 hours. The average fluorescence intensity of the PE channel was detected by flow cytometry. Based on the average fluorescence intensity of the standards, the contents of IL-2 and TNF-α of the samples were calculated.

TNF-α = assay: Inhibitory activity on cytokines: TNFα in supernatant of anti-CD3/anti-CD28 stimulated hPBMC by CBA method; type: cell-based; details: Homo sapiens, 48 h, anti-CD3/anti-CD28, 2 days incubation
Method: as §2, §3, §4, §5
The standards were prepared according to the instructions of IL-2 and TNFα Flex Set kit. […] The average fluorescence intensity of the PE channel was detected by flow cytometry. Based on the average fluorescence intensity of the standards, the contents of IL-2 and TNF-α of the samples were calculated.

[3] = tested on: bombesin-induced acute pancreatitis model in mice; assay: Pharmacodynamic test of bombesin-induced acute pancreatitis in mice (compound 6); type: in vivo, C57BL/6 mice; details: compound 6 intraperitoneal 20 mg/kg; bombesin 50 μg/kg x 7; FIG. 2
Method: Purpose of the experiment: male C57BL/6 mice were used as test animals, and acute pancreatitis was induced by intraperitoneal injection of bombesin. The efficacy of compound 6 on acute pancreatitis was studied.
Drug preparation: an appropriate amount of sample was weighed, and compound 6 was prepared to a 4 mg/mL clear solution with 40% PEG-400+20% Solutol+40%+H2O (v/v).
Experiment scheme: healthy male C57BL/6 mice were injected with bombesin intraperitoneally to induce pancreatitis model, at a dose of 50 μg/kg each time, with 7 injections at an interval of 1 hour. One hour after the seventh injection of bombesin, serum was taken and the levels of amylase and lipase were measured. Compound 6 was administered by intraperitoneal injection at a dose of 20 mg/kg.
Experimental results: see FIG. 2. The levels of plasma amylase (AMY) and lipase (LPS) were analyzed by one-way ANOVA, * * indicates significant difference with G1 (P<0.01), * indicates significant difference with G1 (P<0.05).

[4] = Pharmacokinetic evaluation experiment in mice (intravenous or intraperitoneal injection of compound 6); type: in vivo, C57BL/6 mice
Method: Purpose of the experiment: male C57BL/6 mice were used as test animals, and the plasma drug concentrations of the test compounds were determined by LC/MS/MS at different time points after intravenous or intraperitoneal injection. The pharmacokinetic behavior of the test compound in mice was studied to evaluate its pharmacokinetic characteristics.
Drug preparation: an appropriate amount of sample was weighed to prepare 0.3 mg/mL or 0.5 mg/mL clear solution with 40% PEG400+20% Solutol+40% H2O (volume ratio).
Administration scheme: two healthy male C57BL/6 mice purchased from Beijing Vital River Laboratory Animal Technology Co., Ltd. was on a normal diet. The intravenous injection group was administered with 0.5 mg/mL solution, with a dose volume of 2 mL/kg and a dose of 1 mg/kg. The intraperitoneal injection group was administered with 0.3 mg/mL solution, with a volume of 10 mL/kg and a dose of 3 mg/kg.
as §1, with “target compound” for “the corresponding compounds”

[5] = administered compound itself in plasma, 50 mg/kg intravenous, mice, 50 mg/kg
[6] = male, C57BL/6, mouse, plasma, iv, 50 mg/kg, administered compound itself in plasma, 50 mg/kg intravenous, mice
[7] = male, C57BL/6, mouse, plasma, intravenous injection, 1 mg/kg
[8] = male, C57BL/6, mouse, plasma, ip, intraperitoneal injection, 3 mg/kg

With `O=C(c1c(F)cccc1F)N(COP(=O)(O)O)c1cnc(-c2cc3oc(C4CC4)cc3cc2Cl)cn1` [Compound 18] the solubility thermodynamic at 24 h ([1]; aqueous buffer, thermodynamic from solid, phosphate buffer 50 mM, pH 7.4, 24 hours, ambient temperature) was > 200 µM, the “solubility in water (in words)” value [1] was “very good” and the “DNAUC0-last (exposure normalized to molar dose)” value [2, 5] was 0.69 µM·h. It also gave an AUC(0-t) [2, 6] of 57.2 µM·h, a clearance [2, 6] of 25.1 mL/min/kg and a half-life [2, 6] of 2.49 h. For the same compound, the Vd ([2]; male, C57BL/6, mouse, plasma, iv, 50 mg/kg, administered compound itself in plasma, 50 mg/kg intravenous, mice, read-out: Vdss) was 0.84 L/kg and the “elimination in plasma after administration (in words)” value ([2]; mice) was “rapidly eliminated”.

In the case of `O=C(c1c(F)cccc1F)N(COP(=O)(O)O)c1cnc(-c2cc3oc(C4CC4)cc3cc2Cl)cn1` [Compound 22], the “solubility in water (in words)” value [1] is reported as “very good”, the AUC0-last [2, 5] is reported as 37.1 µM·h and the CL [2, 5] is reported as 28.9 mL/min/kg. The “DNAUC0-last (exposure normalized to molar dose)” value [2, 5] was 0.58 µM·h, the T1/2 [2, 5] was 2.53 h and the Vdss [2, 5] was 1.05 L/kg. For the same compound, the “elimination in plasma after administration (in words)” value ([2]; mice) was “rapidly eliminated”.

In the case of `O=C(c1c(F)cccc1F)N(COP(=O)(O)O)c1cnc(-c2cc3oc(C4CC4)cc3cc2Cl)cn1` [Compound 23], the “solubility in water (in words)” value [1] is reported as “very good”.

In the case of `O=C(Nc1cnc(-c2cc3oc(C4COC4)cc3cc2Cl)cn1)c1c(F)cccc1F` [Compound 17], the IC50 (IL-2) is reported as 173 nM and the IC50 (TNF-α) is reported as 328 nM.

For `O=C(Nc1cnc(-c2cc3oc(C4CC4)cc3cc2Cl)cn1)c1c(F)cccc1F` [Compound 6], the IC50 (IL-2) was 63.8 nM, the IC50 (TNF-α) was 138 nM and the “formation of compound 6 in plasma (in words)” value ([2]; from 5 min of administration of compound 18 or 22, mice) was “a large amount”. The “serum amylase (AMY) level” value [3] was “significantly reduce”, the “serum lipase (LPS) level” value [3] was “significantly reduce” and the “plasma exposure and pharmacokinetic properties (in words)” value ([4]; intravenous and intraperitoneal routes) was “higher plasma exposure and desirable pharmacokinetic properties”. It also gave a bioavailability ([4]; male, C57BL/6, mouse, plasma, intraperitoneal 3 mg/kg vs intravenous 1 mg/kg) of 125%, an AUC(0-t) [4, 7] of 15.6 µM·h and a clearance [4, 7] of 2.05 mL/min/kg. The half-life [4, 7] was 10.6 h, the Vd ([4]; male, C57BL/6, mouse, plasma, intravenous injection, 1 mg/kg, read-out: Vdss) was 1.77 L/kg and the AUC(0-t) [4, 8] was 62.7 µM·h. It also gave a Cmax [4, 8] of 5.53 µM and a Tmax [4, 8] of 2 h.

`O=C(Nc1cnc(-c2cc3oc(C4CC4)nc3cc2Cl)cn1)c1c(F)cccc1F` [Compound 4] gave an IC50 (IL-2) of 280 nM.
